The record followed here is ChEMBL document CHEMBL1201862, “PubChem BioAssay data set” (2004).

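Results reflect a 48-hour exposure of cells in 96-well plates to compound at five concentrations. GI50: concentration for 50% inhibition of growth.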 Active and inactive are the calls of the source. No stated cut-off is given here; in the data, active = GI50 up to about 1.1 µM and inactive = higher.

Test systems include NCI-H23; SNB-19; SR; HCT-116; SK-MEL-2; IGROV-1; UACC-62; ACHN; PC-3; SK-MEL-28; Hs-578T; HCC 2998; U-251; HT-29; BT-549; MCF7; SN12C; NCI/ADR-RES; OVCAR-8; UO-31.
Common to all, as to assay: inhibition of tumour cell growth, NCI panel, 48 h

With `c1ccc2c3ccn4ccc5c6ccccc6[nH]c5c4c-3nc2c1`, the GI50 is 1.69 µM (inactive) with NCI-H23; 1.49 µM (inactive) with SNB-19; 0.0594 µM (active) in the assay on SR; 0.306 µM (active) in the assay on HCT-116; 1.72 µM (inactive) with SK-MEL-2; 1.25 µM (inactive) in the assay with IGROV-1. Besides, the GI50 was 1.77 µM (inactive) in the assay with UACC-62; 1.43 µM (inactive) in the assay with ACHN; 1.39 µM (inactive) in the assay with PC-3; 1.7 µM (inactive) in the assay on SK-MEL-28; 1.6 µM (inactive) in the assay with Hs-578T; 0.453 µM (active) in the assay on HCC 2998. For the same molecule, the GI50 was 0.155 µM (active) in the assay on U-251; 0.391 µM (active) with HT-29; 1.77 µM (inactive) with BT-549; 0.331 µM (active) with MCF7; 0.735 µM (active) with SN12C; 1.72 µM (inactive) with NCI/ADR-RES. For the same molecule, the results for the GI50 in the assay on OVCAR-8 and in the assay with UO-31 were 0.246 µM (active) and 1.39 µM (inactive), respectively.

For the molecule `CC12CCC(Br)C(C)(C)C1CC=C1C(=O)OCC1O2` (stereo not given), the GI50 in the assay on NCI-H23 was 11.8 µM (inactive); in the assay with SNB-19, 18.2 µM (inactive); in the assay on SR it was 5.15 µM (inactive); with HCT-116, 12.9 µM (inactive); in the assay with SK-MEL-2, 13.6 µM (inactive); in the assay with IGROV-1 it was 3.72 µM (inactive). Besides, the GI50 was 8.59 µM (inactive) with UACC-62; 12.5 µM (inactive) in the assay on ACHN; 9.89 µM (inactive) with PC-3; 14.8 µM (inactive) with SK-MEL-28; 10.9 µM (inactive) in the assay on Hs-578T; 12.1 µM (inactive) in the assay on HCC 2998. Also, the GI50 in the assay with U-251 was 9.77 µM (inactive); in the assay on HT-29, 19 µM (inactive); with BT-549 it was 14.9 µM (inactive); with MCF7, 6.07 µM (inactive); in the assay on SN12C it was 18.5 µM (inactive); in the assay with NCI/ADR-RES it was 20.4 µM (inactive). Moreover, the GI50 is 11.6 µM (inactive) in the assay with OVCAR-8 and 8.13 µM (inactive) in the assay with UO-31.

With `Cc1ccc(C)c(C(=N)c2ccccc2Cc2ccccc2)c1`, the GI50 is 26.9 µM (inactive) in the assay with NCI-H23; 42.6 µM (inactive) in the assay on SNB-19; 19.2 µM (inactive) with SR; 12.6 µM (inactive) with HCT-116; 15.3 µM (inactive) in the assay with SK-MEL-2; 25.6 µM (inactive) in the assay on IGROV-1. For the same molecule, the GI50 with UACC-62 is 14.2 µM (inactive); in the assay with ACHN, 18.2 µM (inactive); with PC-3, 26.7 µM (inactive); with SK-MEL-28, 26.4 µM (inactive); with Hs-578T, 5.42 µM (inactive); with HCC 2998, 15.9 µM (inactive). For the same molecule, the GI50 in the assay with U-251 was 15.5 µM (inactive); with HT-29, 12.9 µM (inactive); in the assay with BT-549, 32.7 µM (inactive); in the assay with MCF7, 15.7 µM (inactive); in the assay on SN12C, 17.3 µM (inactive); in the assay with NCI/ADR-RES, 25.4 µM (inactive). The GI50 is 31.7 µM (inactive) in the assay on OVCAR-8 and 27.3 µM (inactive) in the assay on UO-31.
